Numbered stars: 1 amine (or outer) side, 2 acyl side, 3 side chain; on linkers, the order of the positions; unused ones are H or OH. Bridge positions count the residues as written; N and C are the ends. Square brackets hold non-standard residues; d marks the D form. Peptide text beside a SMILES is read from it. I, II: the chains in the order shown. Actinocin(9to1) = Cc1c2oc3c(C)ccc(C(=O)[*:1])c3nc-2c(C(=O)[*:2])c(N)c1=O; NMeV = CN[C@H](C(=O)O)C(C)C; Sar = CNCC(=O)O
Assays:
Nrp2-b1b2 = biological target: T1, Nrp2-b1b2 (Homo sapiens, UniProt O60462); conditions: cited from earlier work
T1 sequence (O60462 276-595 limits assumed): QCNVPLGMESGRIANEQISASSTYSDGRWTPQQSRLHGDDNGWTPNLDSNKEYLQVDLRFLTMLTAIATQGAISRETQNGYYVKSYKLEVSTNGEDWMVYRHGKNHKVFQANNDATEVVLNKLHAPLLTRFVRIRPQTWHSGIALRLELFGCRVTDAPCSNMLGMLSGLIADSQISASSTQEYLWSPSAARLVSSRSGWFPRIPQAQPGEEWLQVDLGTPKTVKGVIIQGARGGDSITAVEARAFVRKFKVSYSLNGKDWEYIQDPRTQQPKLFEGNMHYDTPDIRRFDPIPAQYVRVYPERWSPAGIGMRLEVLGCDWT

PD-L1 mRNA in PC3 = assay: PD-L1 mRNA by qPCR in PC3 cells treated with YAP inhibitor; format: cell-based, human; conditions: Verteporfin 2 μM for 24 hours versus DMSO
Experimental: (D) Bar graphs show fold change of PD-L1/18S mRNA in PC3 treated with DMSO versus PC3 treated with YAP inhibitor (Verteporfin) from 3 independent experiments determined by qPCR.
The following reagents were used: CellTrace™ Violet Cell Proliferation Kit (Thermo Fisher, C34571), eBioscience™ Fixable Viability Dye eFluor™ 780 (Invitrogen, 65-0865-14). Verteporfin was purchased from Tocris and used at a concentration of 2 μM for 24 hours.
Real-time qPCR. RNA extraction was accomplished using an RNA isolation kit (BS88133, Bio Basic Inc.), and cDNAs were produced using a qScript cDNA syn-thesis kit (#95047, Quantabio). SYBR Green (Applied Biosystems) was used as the qPCR master mix. Experiments were performed in triplicate and normalized to 18S. qPCR primer sequences were obtained from the Massachusetts General Hospital/Harvard Medical School PrimerBank (pga.mgh. harvard.edu/primerbank/).

Molecule | AP-VEGF-C/Nrp2-b1b2 binding (Nrp2-b1b2) | PD-L1 mRNA level (PD-L1/18S) (PD-L1 mRNA in PC3)
Oc1cc2c(cc1O)[C@H]1c3ccccc3CN[C@@H]1CC2 (racemic) [Dihydrexidine] | inhibit | –
Cc1c2oc3c(C)ccc(C(=O)N[C@@H]4C(=O)N[C@H](C(C)C)C(=O)N5CCC[C@H]5C(=O)N(C)CC(=O)N(C)[C@@H](C(C)C)C(=O)O[C@@H]4C)c3nc-2c(C(=O)N[C@@H]2C(=O)N[C@H](C(C)C)C(=O)N3CCC[C@H]3C(=O)N(C)CC(=O)N(C)[C@@H](C(C)C)C(=O)O[C@@H]2C)c(N)c1=O [Actinomycin D] (I: T[dV]P[Sar][NMeV] / II: T[dV]P[Sar][NMeV]; ester I:1-I:C, II:1-II:C; linker I:N-II:N via Actinocin(9to1)) | inhibit | –
COc1cc(C(=O)NS(=O)(=O)c2ccccc2C)ccc1Cc1cn(C)c2ccc(NC(=O)OC3CCCC3)cc12 [Zafirlukast] | inhibit | –
Verteporfin | – | significantly reduced

— patent publication US20250179502A1, “TARGETING NEUROPILIN 2 (NRP2) IN LETHAL PROSTATE CANCER” (UNIVERSITY OF MASSACHUSETTS, priority 2022, published 2025)
